The values below come from patent US20220110919A1, “METHODS OF MODULATING LEUKOCYTES ACTIVATION AND THROMBOCYTE CLEARANCE WITH INHIBITORS OF SPECIFIC NEURAMINIDASE ISOENZYMES” (The Governors of the University of Alberta, priority 2018, published 2022).

Test [1] has as its target T1, NEU1 (Homo sapiens, UniProt Q99519).
T1 construct: His; made in house; host or cells: HEK293 cells (cell lysate, unpurified)
Briefly: Inhibition assay, 4MU-NANA cleavage, NEU1. In kind it is biochemical. As for the experimental part: (§1) 4MU-NANA was then added to the mixture, making the final concentration of 4MU-NANA as 50 μM and the total volume of the reaction mixture as 20 μL. […] Assays were performed with duplicates for each point and IC50 was obtained by plotting the data with Graphpad™ Prism 5.0.

Test [2] has as its target T2, NEU3 (Homo sapiens, UniProt Q9UQ49).
T2 construct: MBP (N); made in house; host or cells: E. coli
T2 sequence (Q9UQ49 1-428): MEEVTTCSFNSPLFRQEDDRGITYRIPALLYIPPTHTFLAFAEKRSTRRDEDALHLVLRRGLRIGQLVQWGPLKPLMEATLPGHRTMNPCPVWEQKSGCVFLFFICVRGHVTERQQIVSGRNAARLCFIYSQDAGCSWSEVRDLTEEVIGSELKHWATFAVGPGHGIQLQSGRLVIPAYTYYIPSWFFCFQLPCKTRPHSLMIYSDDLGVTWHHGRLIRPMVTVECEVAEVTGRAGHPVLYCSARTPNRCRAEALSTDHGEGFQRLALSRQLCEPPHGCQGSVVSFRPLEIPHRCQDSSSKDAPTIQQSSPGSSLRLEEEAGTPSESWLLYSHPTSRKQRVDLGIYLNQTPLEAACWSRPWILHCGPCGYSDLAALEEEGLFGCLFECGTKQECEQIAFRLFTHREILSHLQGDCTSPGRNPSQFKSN
Put plainly: Inhibition assay, 4MU-NANA cleavage, NEU3. Format: biochemical. As for the experimental part: as §1

Test [3] addresses T3, NEU4 (Homo sapiens, UniProt Q8WWR8).
T3 construct: GST; made in house; host or cells: E. coli
T3 sequence (Q8WWR8 1-484): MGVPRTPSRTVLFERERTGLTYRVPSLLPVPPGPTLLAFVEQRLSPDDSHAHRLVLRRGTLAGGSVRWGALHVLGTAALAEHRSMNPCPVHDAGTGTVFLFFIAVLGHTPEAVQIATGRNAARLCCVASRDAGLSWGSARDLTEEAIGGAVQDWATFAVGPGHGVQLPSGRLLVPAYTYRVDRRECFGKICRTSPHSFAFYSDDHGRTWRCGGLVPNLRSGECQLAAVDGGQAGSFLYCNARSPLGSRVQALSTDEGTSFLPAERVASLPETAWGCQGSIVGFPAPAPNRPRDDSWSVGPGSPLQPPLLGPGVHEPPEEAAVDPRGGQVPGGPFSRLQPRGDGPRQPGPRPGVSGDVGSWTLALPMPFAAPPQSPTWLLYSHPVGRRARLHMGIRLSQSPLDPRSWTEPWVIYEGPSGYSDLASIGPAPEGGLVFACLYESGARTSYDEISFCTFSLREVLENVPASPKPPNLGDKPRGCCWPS
Put plainly: Inhibition assay, 4MU-NANA cleavage, NEU4. Format: biochemical. As to the method:
as §1

In test [4] the test system is NEU1, NEU2, NEU3, NEU4. Briefly: Target isoenzyme and selectivity from IC50 data of Table I. In kind it is biochemical, human. As to conditions: from IC50 values of Table I.
Setting [5] is: 4MU-NANA as the substrate, pH 4.5, read-out: IC50 NEU1.
[6] abbreviates: compounds of Table I, read-out: IC50 against neu3.
Where [7] appears, read: compounds of Table I, read-out: IC50 against neu4.
Where [8] appears, read: 4MU-NANA as the substrate, pH 4.5, read-out: IC50 NEU3.
Setting [9] is: 4MU-NANA as the substrate, pH 4.5, read-out: IC50 NEU4.

Structures are written as SMILES. Like-named read-outs stand apart in the source and are kept apart here.

For `CCCCC(C)C(=O)N[C@H]1[C@H]([C@H](O)[C@H](O)CO)OC(C(=O)O)=C[C@@H]1O` (mixture of isomers) [compound 72, 5-(2-Methyl)hexanamido(S/R)-2,6-anhydro-3,5-dideoxy-d-glycero-d-galacto-non-2-enonic acid], the IC50 in test [1] (setting [5]) turned out to be 0.55 ± 0.07 µM.

Regarding `CCCCC(C)C(=O)N[C@H]1[C@H]([C@H](O)[C@H](O)CNC(C)=O)OC(C(=O)O)=C[C@@H]1O` (mixture of isomers) [compound 74, 5-(2-Methyl)hexanamido(S/R)-9-acetanamido-2,6-anhydro-3,5-dideoxy-d-glycero-d-galacto-non-2-enonic acid], the IC50 in test [1] (setting [5]) was 0.42 ± 0.07 µM.

Take `CC(=O)N[C@@H]1C(N=[N+]=[N-])C=C(C(=O)O)OC1CNOCc1ccccc1` (stereo in doubt) [5c]: the IC50 in test [2] (setting [6]) was < 1 µM.

On to `COc1ccc(-c2cn(C[C@@H](O)[C@@H](O)[C@@H]3OC(C(=O)O)=C[C@H](O)[C@H]3NC(C)=O)nn2)cc1` [7e], for which the IC50 in test [3] (setting [7]) was ≤ 3 µM.

Take `CC(=O)N[C@H]1[C@H]([C@H](O)[C@H](O)Cn2cc(-c3ccc(F)cc3)nn2)OC(C(=O)O)=C[C@@H]1O` [7f]: the Selectivity in test [4] turned out to be 10. For the same compound, the IC50 in test [3] (setting [7]) is ≤ 3 µM.

As for `CC(=O)N[C@H]1[C@H]([C@H](O)[C@H](O)Cn2cc(-c3ccc(C(F)(F)F)cc3)nn2)OC(C(=O)O)=C[C@@H]1O` [7g], in test [3] (setting [7]), the IC50 is ≤ 10 µM.

Take `CC(=O)N[C@@H]1C(O)C=C(C(=O)O)OC1C(O)C(O)Cn1cc(-c2ccc(C(=O)O)cc2)nn1` (stereo partly drawn) [7h]: the IC50 in test [3] (setting [7]) was ≤ 3 µM.

Regarding `CC(=O)N[C@@H]1C(O)C=C(C(=O)O)OC1C(O)C(O)Cn1cc(-c2ccc(-c3ccccc3)cc2)nn1` (stereo partly drawn) [7i], the IC50 in test [3] (setting [7]) was < 1 µM.

As to `CCC(=O)N[C@H]1C=C(C(=O)O)O[C@@H]([C@H](O)[C@H](O)CO)[C@@H]1NC(C)=O` [25a, 5-Acetamido-2,6-anhydro-4-propionamido-3,4,5-trideoxy-D-glycero-D-galacto-non-2-enonic acid], the IC50 in test [2] (setting [8]), in test [3] (setting [9]) and in test [1] (setting [5]) was > 500 µM throughout.

For the compound `CCCCC(=O)N[C@H]1C=C(C(=O)O)O[C@@H]([C@H](O)[C@H](O)CO)[C@@H]1NC(C)=O` [25b, 5-Acetamido-2,6-anhydro-4-pentanamido-3,4,5-trideoxy-D-glycero-D-galacto-non-2-enonic acid], the 50% inhibitory concentration (IC50) in test [2] (setting [8]), in test [3] (setting [9]) and in test [1] (setting [5]) was > 500 µM in each case.

With `CC(=O)N[C@H]1[C@H]([C@H](O)[C@H](O)CO)OC(C(=O)O)=C[C@@H]1NC(=O)C1CC1` [25c, 5-Acetamido-2,6-anhydro-4-cyclopropanecarboxamido-3,4,5-trideoxy-D-glycero-D-galacto-non-2-enonic acid], the IC50 in test [2] (setting [8]), in test [3] (setting [9]) and in test [1] (setting [5]) was > 500 µM each time.

Regarding `CC(=O)N[C@H]1[C@H]([C@H](O)[C@H](O)CO)OC(C(=O)O)=C[C@@H]1NC(=O)C1CCC1` [25d, 5-Acetamido-2,6-anhydro-4-cyclobutanecarboxamido-3,4,5-trideoxy-D-glycero-D-galacto-non-2-enonic acid], the IC50 in test [2] (setting [8]), in test [3] (setting [9]) and in test [1] (setting [5]) was > 500 µM each time.

Consider `CC(=O)NC1C(NC(=O)NCCC(=O)O)C=C(C(=O)O)OC1C(O)C(O)Cn1cc(-c2ccc(C(=O)O)cc2)nn1` (stereo not drawn) [compound 18], for which the IC50 in test [2] (setting [8]) and in test [1] (setting [5]) was > 500 µM in each case.

For the compound `CC(=O)N[C@@H]1C(O)C=C(C(=O)O)OC1C(O)C(O)Cn1cc(CNC(=O)c2ccccc2)nn1` (stereo partly drawn) [compound 26], in test [3] (setting [7]), the IC50 is ≤ 3 µM.

For `CC(=O)N[C@@H]1C(O)C=C(C(=O)O)OC1C(O)C(O)Cn1cc(-c2ccc(NC(=O)c3ccccc3)cc2)nn1` (stereo partly drawn) [compound 27], the IC50 in test [3] (setting [7]) was ≤ 10 µM.

On to `CC(=O)N[C@H]1C(C(O)C(O)Cn2cc(CO)nn2)OC(C(=O)O)=C[C@H]1O` (stereo partly drawn) [compound 28, C9-4HMT-DANA], for which the IC50 is 80 ± 10 µM in test [2] (setting [8]), ≤ 100 µM in test [2] (setting [6]) and > 500 µM in test [1] (setting [5]).

Regarding `CCCC(=O)N[C@H]1[C@H]([C@H](O)[C@H](O)CO)OC(C(=O)O)=C[C@@H]1O` [compound 30, 5-Butyramido-2,6-anhydro-3,5-dideoxy-D-glycero-D-galacto-non-2-enonic acid], the IC50 in test [2] (setting [8]) is 15 ± 2 µM; in test [3] (setting [9]), 8.4 ± 0.4 µM; in test [3] (setting [7]) it was ≤ 10 µM; in test [1] (setting [5]) it was 8.4 ± 0.5 µM; in test [1] (compounds of Table I, read-out: IC50 against neu1), ≤ 10 µM.

Consider `[N-]=[N+]=NCC(=O)N[C@@H]1C(O)C=C(C(=O)O)OC1C(O)C(O)CO` (stereo partly drawn) [compound 40, 5-(N-2-azidoacetyl)-2,3,5-trideoxy-D-glycero-D-galacto-2-nonulopyranosonic acid], for which, in test [3] (setting [7]), the IC50 is ≤ 10 µM.

Regarding `CC(=O)Nc1ccc(C(=O)NC[C@@H](O)[C@@H](O)[C@@H]2OC(C(=O)O)=C[C@H](O)[C@H]2NC(C)=O)cc1` [compound 58, 5-Acetamido-9-(4-acetamido)benzamido-2,6-anhydro-3,5-dideoxy-d-glycero-d-galacto-non-2-enonic acid], in test [2] (setting [6]), the IC50 is ≤ 10 µM.

In the case of `CC(=O)Nc1cccc(C(=O)NC[C@@H](O)[C@@H](O)[C@@H]2OC(C(=O)O)=C[C@H](O)[C@H]2NC(C)=O)c1` [compound 60, 5-Acetamido-9-(3-acetamido)benzamido-2,6-anhydro-3,5-dideoxy-d-glycero-d-galacto-non-2-enonic acid], in test [2] (setting [6]), the IC50 is ≤ 10 µM.

On to `CCCCCc1cn(C[C@@H](O)[C@@H](O)[C@@H]2OC(C(=O)O)=C[C@H](O)[C@H]2NC(C)=O)nn1` [compound 63, 5-Acetamido-9-(4-pentyl)triazolyl-2,6-anhydro-3,5-dideoxy-d-glycero-d-galacto-non-2-enonic acid], for which the IC50 in test [2] (setting [6]) is ≤ 10 µM; in test [3] (setting [7]), ≤ 3 µM.

With `CCCCCC(=O)NC[C@@H](O)[C@@H](O)[C@@H]1OC(C(=O)O)=C[C@H](O)[C@H]1NC(=O)CCCCC` [compound 64, 5-Hexanamido-9-hexanamido-2,6-anhydro-3,5-dideoxy-d-glycero-d-galacto-non-2-enonic acid], the IC50 in test [2] (setting [8]) and in test [3] (setting [9]) was > 500 µM in each case.

On to `CCCCC(=O)NC[C@@H](O)[C@@H](O)[C@@H]1OC(C(=O)O)=C[C@H](O)[C@H]1NC(=O)CC` [compound 65, 5-Propionamido-9-pentanamido-2,6-anhydro-3,5-dideoxy-D-glycero-D-galacto-non-2-enonic acid], for which the IC50 in test [2] (setting [8]) is > 500 µM.

In the case of `CCCCCC(=O)N[C@H]1[C@H]([C@H](O)[C@H](O)CNC(C)=O)OC(C(=O)O)=C[C@@H]1O` [compound 68, 5-Hexanamido-9-acetamido-2,6-anhydro-3,5-dideoxy-D-glycero-D-galacto-non-2-enonic acid], in test [2] (setting [8]), the IC50 was > 500 µM.

In the case of `CCCCCC(=O)N[C@H]1[C@H]([C@H](O)[C@H](O)CNC(=O)CC)OC(C(=O)O)=C[C@@H]1O` [compound 69, 5-Hexanamido-9-propionamido-2,6-anhydro-3,5-dideoxy-d-glycero-d-galacto-non-2-enonic acid], the IC50 in test [2] (setting [8]) was > 500 µM.

For the compound `CCCCCC(=O)N[C@H]1[C@H]([C@H](O)[C@H](O)CNC(=O)CCC)OC(C(=O)O)=C[C@@H]1O` [compound 70, 5-Hexanamido-9-butanamido-2,6-anhydro-3,5-dideoxy-D-glycero-D-galacto-non-2-enonic acid], the IC50 in test [2] (setting [8]) and in test [3] (setting [9]) was > 500 µM each time.
